Square brackets hold non-standard residues; d marks the D form. Peptide text beside a SMILES is read from it. dPhe(4-Cl) = N[C@H](Cc1ccc(Cl)cc1)C(=O)O; d2Nal = N[C@H](Cc1ccc2ccccc2c1)C(=O)O; dCit = NC(=O)NCCC[C@@H](N)C(=O)O; d3Pal = N[C@H](Cc1cccnc1)C(=O)O
Legend:
[1] = system: cancer cell lines, DetermaIO classes; assay: Association of PRISM compound sensitivity with DetermaIO (DTIO) cell line classes; type: cell-based
[2] = system: cancer cell lines classified IM, MSL, M; assay: PRISM screen compound sensitivity correlated with IM, MSL and M subtype of cell lines (101 gene signature); type: cell-based; details: for IM Corr test: correlation of PRISM compound sensitivity with IM subtype correlation; for M Corr test: correlation of PRISM compound sensitivity with M subtype correlation; for MSL Corr test: correlation of PRISM compound sensitivity with MSL subtype correlation
[3] = correlation of PRISM compound sensitivity with DTIO; test cell set
[4] = correlation of PRISM compound sensitivity with DTIO; training cell set
[5] = correlation of compound sensitivity with DetermaIO (DTIO); test set
[6] = correlation of compound sensitivity with DetermaIO (DTIO); training set
[7] = correlation of PRISM compound sensitivity with DTIO; test cell set (188 cell lines)
[8] = correlation of PRISM compound sensitivity with DTIO; training cell set (371 cell lines)
[9] = subtype (IM, MSL or M) with which compound sensitivity is negatively correlated, training cell set (371 cell lines), 101 gene signature
[10] = correlation of PRISM compound sensitivity with DTIO (DetermaIO); test cell set (188 cell lines)
[11] = correlation of PRISM compound sensitivity with DTIO (DetermaIO); training cell set (371 cell lines)
[12] = subtype (IM, MSL or M) assigned to the compound by negative correlation of PRISM sensitivity with subtype, training cell set (371 cell lines), 101 gene signature
[13] = subtype (IM, MSL or M) with which PRISM compound sensitivity is negatively correlated, training cell set, 101 gene signature

SMILES	DTIO Corr test [1, 3]	DTIO Corr train [1, 4]	IM Corr test ([2]; test cell set)	M Corr test ([2]; test cell set)	MSL Corr test ([2]; test cell set)	IM Corr test ([2]; test cell set (188 cell lines))	M Corr test ([2]; test cell set (188 cell lines))	MSL Corr test ([2]; test cell set (188 cell lines))	also measured
CCOC(=O)c1c(C)n(C)c2ccc(O)cc12 [mecarbinate]	−0.09259	−0.07862	−0.08712	0.04238	−0.08851	–	–	–	–
CN(C)CCN1C(=O)c2cccc3cc(NC(N)=O)cc(c23)C1=O [UNBS-5162]	0.09148	0.09844	0.1623	−0.2029	−0.03433	–	–	–	DTIO Corr test [1, 5]: 0.09148; DTIO Corr train [1, 6]: 0.09844
Nc1cccc(-c2cc3c(Oc4cccc(O)c4)ncnc3[nH]2)c1 [TWS-119]	–	–	–	–	–	−0.02666	0.00573	0.1335	DTIO Corr test [1, 7]: −0.03964; DTIO Corr train [1, 8]: −0.1606
C=C(C)CN1CC[C@]23c4c5ccc(O)c4O[C@H]2c2[nH]c4ccccc4c2C[C@@]3(O)C1C5.Cl.O [SDM25N]	−0.165	−0.12	–	–	–	−0.1682	0.08807	−0.06407	–
CN1C(=O)N(c2cc(Cl)cc(Cl)c2)C(=O)[C@]12CN(Cc1cc(C(=O)O)cs1)C[C@H]2c1ccc(C#N)cc1 [BMS-587101]	−0.08591	0.01986	–	–	–	−0.05699	0.1367	−0.03676	TNBCType train [2, 9]: MSL
O=[N+]([O-])c1cc(Cl)ccc1S(=O)(=O)N1CCN(Cc2ccccc2)CC1 [RN-1747]	−0.09773	−0.1839	−0.1441	0.1428	0.1269	–	–	–	–
CC(C)c1cc(-c2ccc(F)c3ccccc23)nc(N)n1 [RS-127445]	–	–	–	–	–	0.05394	−0.1296	−0.05973	DTIO Corr test [1, 10]: 0.0427; DTIO Corr train [1, 11]: 0.05431; TNBCType train [2, 12]: MSL
C[C@H](N[C@@H](CCc1ccccc1)C(=O)O)C(=O)N1CCC[C@H]1C(=O)O [enalaprilat]	–	–	–	–	–	0.03404	−0.06381	−0.1038	DTIO Corr test [1, 7]: −0.03184; DTIO Corr train [1, 8]: 0.0604; TNBCType train ([2]; subtype (IM, MSL or M) the PRISM compound sensitivity is associated with, training cell set (371 cell lines), 101 gene signature): MSL
C[C@H](Nc1ncnc2[nH]cnc12)c1cc2ccc(F)cc2nc1-c1ccccn1 [AMG-319]	−0.04463	−0.0218	−0.00518	−0.1202	−0.07748	–	–	–	TNBCType train [2, 13]: MSL
CC(=O)Nc1ccc(Cc2ccc(NC(C)=O)cc2)cc1 [FH1]	−0.06073	−0.08253	−0.11	0.01237	−0.1426	–	–	–	–
Nc1nc2c(nc(Br)n2[C@@H]2O[C@@H]3COP(=O)(O)O[C@H]3[C@H]2O)c(=O)[nH]1 [8-bromo-cGMP]	−0.017	0.07485	–	–	–	−0.00708	−0.06633	−0.05953	TNBCType train [2, 9]: MSL
CCNCCCNCCCCNCCCNCC [1,12-Besm]	0.02016	0.07515	–	–	–	−0.00575	−0.0837	−0.1322	–
CCn1c(=O)[nH]c2cc(Cl)c(Cl)cc21 [DCEBIO]	–	–	–	–	–	0.1207	−0.1198	−0.1352	DTIO Corr test [1, 10]: 0.121; DTIO Corr train [1, 11]: 0.1577
COc1cc(-c2ccc(N=Nc3ccc4c(S(=O)(=O)[O-])cc(S(=O)(=O)[O-])c(N)c4c3O)c(OC)c2)ccc1N=Nc1ccc2c(S(=O)(=O)[O-])cc(S(=O)(=O)[O-])c(N)c2c1O.[Na+].[Na+].[Na+].[Na+] [chicago-sky-blue-6b]	–	–	–	–	–	−0.1701	0.1599	0.184	DTIO Corr test [1, 10]: −0.07521; DTIO Corr train [1, 11]: −0.1611
CC(=O)N[C@H](Cc1ccc2ccccc2c1)C(=O)N[C@H](Cc1ccc(Cl)cc1)C(=O)N[C@H](Cc1cccnc1)C(=O)N[C@@H](CO)C(=O)N[C@@H](Cc1ccc(O)cc1)C(=O)N[C@H](CCCNC(N)=O)C(=O)N[C@@H](CC(C)C)C(=O)N[C@@H](CCCNC(=N)N)C(=O)N1CCC[C@H]1C(=O)N[C@H](C)C(N)=O [cetrorelix] (Ac-[d2Nal][dPhe(4-Cl)][d3Pal]SY[dCit]LRP[dA]-NH2)	–	–	–	–	–	−0.1828	−0.05533	−0.07051	DTIO Corr test [1, 10]: −0.1344; DTIO Corr train [1, 11]: 0.03723; TNBCType train [2, 12]: MSL
C=CC(=O)Nc1cccc(Nc2nc(Nc3ccc(Oc4ccnc(C(=O)NC)c4)cc3)ncc2F)c1 [CNX-774]	0.1389	0.07802	0.09358	−0.09506	0.02463	–	–	–	–
Cc1cc(C)c(N(Cc2ccccc2)S(=O)(=O)c2ccc(OCCNC(=O)c3cc4ccccc4o3)cc2)c(C(=O)NO)c1 [WAY-170523]	0.02955	0.0516	−0.0044	−0.01887	−0.04718	–	–	–	TNBCType train [2, 13]: MSL
C=CCNC(=O)c1cc([N+](=O)[O-])cc2c(=O)[nH]c(Nc3ccc(Cl)c(Cl)c3)nc12 [AZ-10417808]	−0.05539	−0.1839	−0.06367	0.03341	0.2588	–	–	–	–
COc1cc2nccc(Oc3ccc(NC(=O)NC4CC4)c(Cl)c3)c2cc1C(N)=O [K39974922]	–	–	–	–	–	–	–	–	DTIO Corr test ([1]; association of compound sensitivity with DetermaIO classes; test data set): 0.002695; DTIO Corr train ([1]; association of compound sensitivity with DetermaIO classes; training data set): −0.03256; TNBCType train ([2]; classification of association of compound sensitivity with IM, MSL and M cell line classes, training data set): MSL
Cc1ccc(NC(=O)c2cccc(C(C)(C)C#N)c2)cc1Nc1ccc2ncn(C)c(=O)c2c1 [AZ-628]	0.3247	0.1908	–	–	–	0.3356	−0.2327	0.1133	DTIO Corr test ([1]; correlation of compound sensitivity with DetermaIO (DTIO), test set): 0.3247; DTIO Corr train ([1]; correlation of compound sensitivity with DetermaIO (DTIO), training set): 0.1908; DTIO Corr test [1, 5]: 0.3247; DTIO Corr train [1, 6]: 0.1908
CC(C)C[C@@H]1NC(=O)[C@@H](C(C)C)NC(=O)[C@@H]2CCCN2C(=O)[C@@H](CC(=O)O)NC(=O)[C@@H](Cc2c[nH]c3ccccc23)NC1=O [BQ-123] (cyclo(L[dW][dD]P[dV]))	0.07641	0.04394	–	–	–	0.0449	−0.1374	−0.1421	TNBCType train [2, 9]: MSL
C#Cc1cccc2c1c(C(=O)c1ccc(Cn3c(C)nc4cnccc43)c(F)c1)cn2C(=O)N(C)C [ABT-491]	–	–	–	–	–	−0.08486	0.04621	0.009812	DTIO Corr test [1, 7]: −0.1207; DTIO Corr train [1, 8]: −0.1065
C[C@@H]1CN(Cc2ccc(F)cc2)CCN1C(=O)COc1ccc(Cl)cc1NC(N)=O.Cl [ZK811752]	–	–	–	–	–	0.1095	−0.08132	−0.00448	DTIO Corr test [1, 10]: 0.04281; DTIO Corr train [1, 11]: 0.09953
